Experimental data from PubChem BioAssay AID1259407 (Chemical Carcinogenesis Research Information System (CCRIS), 2018).
The source made the active and inactive calls. No rule for the calls is given here.

System: CCRIS mutagenicity, Ames/micronucleus/aberration tests
Test: CCRIS mutagenicity studies
[1] = Test System: AMES SALMONELLA TYPHIMURIUM, Strain/Indicator: TA98, Metabolic Activation: NONE, Method: STANDARD PLATE
[2] = Test System: AMES SALMONELLA TYPHIMURIUM, Strain/Indicator: TA100, Metabolic Activation: NONE, Method: STANDARD PLATE
[3] = Test System: AMES SALMONELLA TYPHIMURIUM, Strain/Indicator: TA98, Metabolic Activation: NONE, Method: PREINCUBATION
[4] = Test System: AMES SALMONELLA TYPHIMURIUM, Strain/Indicator: TA98, Metabolic Activation: RAT, LIVER, S-9, AROCLOR 1254, Method: STANDARD PLATE
[5] = Test System: AMES SALMONELLA TYPHIMURIUM, Strain/Indicator: TA100, Metabolic Activation: NONE, Method: PREINCUBATION
[6] = Test System: AMES SALMONELLA TYPHIMURIUM, Strain/Indicator: TA100, Metabolic Activation: RAT, LIVER, S-9, AROCLOR 1254, Method: STANDARD PLATE
[7] = Test System: AMES SALMONELLA TYPHIMURIUM, Strain/Indicator: TA1535, Metabolic Activation: NONE, Method: PREINCUBATION
[8] = Test System: AMES SALMONELLA TYPHIMURIUM, Strain/Indicator: TA1535, Metabolic Activation: NONE, Method: STANDARD PLATE
[9] = Test System: AMES SALMONELLA TYPHIMURIUM, Strain/Indicator: TA1535, Metabolic Activation: RAT, LIVER, S-9, AROCLOR 1254, Method: STANDARD PLATE
[10] = Test System: AMES SALMONELLA TYPHIMURIUM, Strain/Indicator: TA1537, Metabolic Activation: NONE, Method: PREINCUBATION
[11] = Test System: AMES SALMONELLA TYPHIMURIUM, Strain/Indicator: TA1537, Metabolic Activation: NONE, Method: STANDARD PLATE
[12] = Test System: AMES SALMONELLA TYPHIMURIUM, Strain/Indicator: TA1537, Metabolic Activation: RAT, LIVER, S-9, AROCLOR 1254, Method: STANDARD PLATE
[13] = Test System: AMES SALMONELLA TYPHIMURIUM, Strain/Indicator: TA1538, Metabolic Activation: NONE, Method: STANDARD PLATE
[14] = Test System: AMES SALMONELLA TYPHIMURIUM, Strain/Indicator: TA1538, Metabolic Activation: RAT, LIVER, S-9, AROCLOR 1254, Method: STANDARD PLATE

`COC(=O)c1cc(-c2ccc(N)c(C(=O)OC)c2)ccc1N` was tested, and the mutagenic call (Test System: AMES SALMONELLA TYPHIMURIUM, Strain/Indicator: TA98(1,8-DNP6), Metabolic Activation: NONE, Method: STANDARD PLATE) was “inactive; negative”, the mutagenic call (Test System: AMES SALMONELLA TYPHIMURIUM, Strain/Indicator: TA98(1,8-DNP6), Metabolic Activation: S-9, Method: STANDARD PLATE) was “active; positive” and the mutagenic call [1] was “inactive; negative”. For the same compound, the mutagenic call (Test System: AMES SALMONELLA TYPHIMURIUM, Strain/Indicator: TA98, Metabolic Activation: S-9, Method: STANDARD PLATE) was “active; positive”, the mutagenic call [2] was “inactive; negative” and the mutagenic call (Test System: AMES SALMONELLA TYPHIMURIUM, Strain/Indicator: TA100, Metabolic Activation: S-9, Method: STANDARD PLATE) was “inactive; negative”.
With `O=Cc1ccccc1[N+](=O)[O-]` the mutagenic call (Test System: AMES SALMONELLA TYPHIMURIUM, Strain/Indicator: TA98, Metabolic Activation: HAMSTER, LIVER, S-9, AROCLOR 1254, Method: STANDARD PLATE) was “inactive; negative”, the mutagenic call [3] was “inactive; negative” and the mutagenic call [1] was “inactive; negative”. For the same compound, the mutagenic call [4] was “inactive; negative”, the mutagenic call (Test System: AMES SALMONELLA TYPHIMURIUM, Strain/Indicator: TA98, Metabolic Activation: RAT, LIVER, S-9, KANECHLOR 500, Method: PREINCUBATION) was “inactive; negative” and the mutagenic call (Test System: AMES SALMONELLA TYPHIMURIUM, Strain/Indicator: TA98, Method: PREINCUBATION) was “inactive; negative”. For the same compound, the mutagenic call (Test System: AMES SALMONELLA TYPHIMURIUM, Strain/Indicator: TA100, Metabolic Activation: HAMSTER, LIVER, S-9, AROCLOR 1254, Method: STANDARD PLATE) was “inactive; negative”, the mutagenic call [5] was “inactive; negative” and the mutagenic call [2] was “inactive; negative”. The mutagenic call [6] was “inactive; negative”, the mutagenic call (Test System: AMES SALMONELLA TYPHIMURIUM, Strain/Indicator: TA100, Metabolic Activation: RAT, LIVER, S-9, KANECHLOR 500, Method: PREINCUBATION) was “inactive; negative” and the mutagenic call (Test System: AMES SALMONELLA TYPHIMURIUM, Strain/Indicator: TA100, Method: PREINCUBATION) was “inactive; negative”. The mutagenic call (Test System: AMES SALMONELLA TYPHIMURIUM, Strain/Indicator: TA1535, Metabolic Activation: HAMSTER, LIVER, S-9, AROCLOR 1254, Method: STANDARD PLATE) was “inactive; negative”, the mutagenic call [7] was “inactive; negative” and the mutagenic call [8] was “inactive; negative”. For the same compound, the mutagenic call [9] was “inactive; negative”, the mutagenic call (Test System: AMES SALMONELLA TYPHIMURIUM, Strain/Indicator: TA1535, Method: PREINCUBATION) was “inactive; negative” and the mutagenic call (Test System: AMES SALMONELLA TYPHIMURIUM, Strain/Indicator: TA1537, Metabolic Activation: HAMSTER, LIVER, S-9, AROCLOR 1254, Method: STANDARD PLATE) was “inactive; negative”. The mutagenic call [10] was “inactive; negative”, the mutagenic call [11] was “inactive; negative” and the mutagenic call [12] was “inactive; negative”. The mutagenic call (Test System: AMES SALMONELLA TYPHIMURIUM, Strain/Indicator: TA1537, Method: PREINCUBATION) was “inactive; negative”, the mutagenic call (Test System: AMES SALMONELLA TYPHIMURIUM, Strain/Indicator: TA1538, Metabolic Activation: HAMSTER, LIVER, S-9, AROCLOR 1254, Method: STANDARD PLATE) was “inactive; negative” and the mutagenic call (Test System: AMES SALMONELLA TYPHIMURIUM, Strain/Indicator: TA1538, Metabolic Activation: NONE, Method: PREINCUBATION) was “inactive; negative”. For the same compound, the mutagenic call [13] was “inactive; negative”, the mutagenic call [14] was “inactive; negative” and the mutagenic call (Test System: AMES SALMONELLA TYPHIMURIUM, Strain/Indicator: TA1538, Method: PREINCUBATION) was “inactive; negative”. For the same compound, the mutagenic call (Test System: Mouse lymphoma, Strain/Indicator: L5178Y (tk+/tk-), Metabolic Activation: None, Method: Suspension/plate) was “inactive; negative” and the mutagenic call (Test System: Mouse lymphoma, Strain/Indicator: L5178Y (tk+/tk-), Metabolic Activation: Rat, Liver, S-9, Aroclor 1254, Method: Suspension/plate) was “inactive; negative”.
With `Nc1nc2c(s1)CC[C@@H]1NCCC[C@@H]21` the mutagenic call [14] was “inactive; negative”.
For `C=C(C)C(=O)OCC`, the mutagenic call (Test System: AMES SALMONELLA TYPHIMURIUM, Strain/Indicator: TA98, Metabolic Activation: HAMSTER, LIVER, S-9, AROCLOR 1254 (10%), Method: PREINCUBATION) was “inactive; negative”, the mutagenic call [3] was “inactive; negative” and the mutagenic call [1] was “inactive; negative”. For the same compound, the mutagenic call (Test System: AMES SALMONELLA TYPHIMURIUM, Strain/Indicator: TA98, Metabolic Activation: RAT, LIVER, S-9, AROCLOR 1254 (10%), Method: PREINCUBATION) was “inactive; negative”, the mutagenic call [4] was “inactive; negative” and the mutagenic call (Test System: AMES SALMONELLA TYPHIMURIUM, Strain/Indicator: TA98, Metabolic Activation: RAT, LIVER, S-9, SODIUM PHENOBARBITAL, Method: STANDARD PLATE) was “inactive; negative”. For the same compound, the mutagenic call (Test System: AMES SALMONELLA TYPHIMURIUM, Strain/Indicator: TA100, Metabolic Activation: HAMSTER, LIVER, S-9, AROCLOR 1254 (10%), Method: PREINCUBATION) was “inactive; negative”, the mutagenic call [5] was “inactive; negative” and the mutagenic call [2] was “inactive; negative”. The mutagenic call (Test System: AMES SALMONELLA TYPHIMURIUM, Strain/Indicator: TA100, Metabolic Activation: RAT, LIVER, S-9, AROCLOR 1254 (10%), Method: PREINCUBATION) was “inactive; negative”, the mutagenic call [6] was “inactive; negative” and the mutagenic call (Test System: AMES SALMONELLA TYPHIMURIUM, Strain/Indicator: TA100, Metabolic Activation: RAT, LIVER, S-9, SODIUM PHENOBARBITAL, Method: STANDARD PLATE) was “inactive; negative”. For the same compound, the mutagenic call (Test System: AMES SALMONELLA TYPHIMURIUM, Strain/Indicator: TA1535, Metabolic Activation: HAMSTER, LIVER, S-9, AROCLOR 1254 (10%), Method: PREINCUBATION) was “inactive; negative”, the mutagenic call [7] was “inactive; negative” and the mutagenic call [8] was “inactive; negative”. For the same compound, the mutagenic call (Test System: AMES SALMONELLA TYPHIMURIUM, Strain/Indicator: TA1535, Metabolic Activation: RAT, LIVER, S-9, AROCLOR 1254 (10%), Method: PREINCUBATION) was “inactive; negative”, the mutagenic call [9] was “inactive; negative” and the mutagenic call (Test System: AMES SALMONELLA TYPHIMURIUM, Strain/Indicator: TA1535, Metabolic Activation: RAT, LIVER, S-9, SODIUM PHENOBARBITAL, Method: STANDARD PLATE) was “inactive; negative”. For the same compound, the mutagenic call (Test System: AMES SALMONELLA TYPHIMURIUM, Strain/Indicator: TA1537, Metabolic Activation: HAMSTER, LIVER, S-9, AROCLOR 1254 (10%), Method: PREINCUBATION) was “inactive; negative”, the mutagenic call [10] was “inactive; negative” and the mutagenic call [11] was “inactive; negative”. For the same compound, the mutagenic call (Test System: AMES SALMONELLA TYPHIMURIUM, Strain/Indicator: TA1537, Metabolic Activation: RAT, LIVER, S-9, AROCLOR 1254 (10%), Method: PREINCUBATION) was “inactive; negative”, the mutagenic call [12] was “inactive; negative” and the mutagenic call (Test System: AMES SALMONELLA TYPHIMURIUM, Strain/Indicator: TA1537, Metabolic Activation: RAT, LIVER, S-9, SODIUM PHENOBARBITAL, Method: STANDARD PLATE) was “inactive; negative”. For the same compound, the mutagenic call [13] was “inactive; negative”, the mutagenic call [14] was “inactive; negative” and the mutagenic call (Test System: AMES SALMONELLA TYPHIMURIUM, Strain/Indicator: TA1538, Metabolic Activation: RAT, LIVER, S-9, SODIUM PHENOBARBITAL, Method: STANDARD PLATE) was “inactive; negative”.
